Values of other authors in patent US6399115B2, “Method and composition for the treatment of benign prostate hypertrophy (BPH) and prevention of prostate cancer” (priority 1999, dated 2002).

Key:
plasma testosterone = conditions: in vivo
5 alpha-reductase = conditions: human prostatic tissue
[1] = among the major carotenoids

For `[Cu]` [Copper], the “levels of plasma testosterone” value (plasma testosterone) is listed as “reduce”.
For `[Zn]` [Zinc], the “relationship with 5 alpha-reductase activity” value (5 alpha-reductase) is given as “inverse relationship”.
For `CC(C)=CCC/C(C)=C/C=C/C(C)=C/C=C/C(C)=C/C=C/C=C(C)/C=C/C=C(C)/C=C/C=C(\C)CCC=C(C)C` [lycopene], the “quenching free oxygen radicals” value [1] is listed as “most effective and significant”.
